How the values were obtained:
5HT2 serotonin receptor = target: T1, 5HT2 serotonin receptor (Rattus norvegicus, UniProt P14842); experiment: 5HT2 receptor binding, [3H]ketanserin displacement; conditions: read-out: IC50 (inhibition of [3H]-ligand binding) (converted)
T1 construct: Cell membrane fractions, prepared from tissue homogenates or cells; from tissue
Description: (§1) Cell membrane fractions, prepared from tissue homogenates or cells, were incubated with a radioactive [^3 H]-labelled substance (described hereinafter as the [^3 H]-ligand) known to bind specifically to a particular receptor, thus labeling this receptor. The [^3 H]-ligand used for each receptor site is mentioned in Table 1, as are the references wherein the experimental conditions of these tests are described.
(§2) After the incubation, the labelled membranes were harvested on glass fibre filters and rinsed twice with 5 ml of a cold buffer solution to remove non-bound [^3 H]-ligands. Subsequently the glass fibre filters, with the harvested membranes, were placed in plastic mini-vials and 2.0 ml of Ultima Gold™ scintillation cocktail was added. Vials were vigorously shaken and kept at 4° C. for 24 h. Thereafter radioactivity was counted in a liquid scintillation spectrometer. Said radioactivity is proportional to the membrane labelling by the [^3 H]-ligand.
(§3) Specific membrane labelling by the [^3 H]-ligand was distinguished from the non-specific membrane labelling by selectively inhibiting the labelling of the receptor site by another substance (unlabelled) known to compete with the [^3 H]-ligand for binding to said receptor site. The remaining non-specific labelling was substracted from all assays concerning said receptor site.
(§4) During the incubation the test compounds were able to compete with the [^3 H]-ligand for binding with the receptor. Subsequently the membranes were harvested and the radioactivity was measured as described above.
(§5) A compound having a high binding affinity is capable of displacing the [^3 H]-ligand from binding to the receptor, and consequently the radioactivity of the harvested membranes will be diminished. […] The values presented in table 1 are IC50 -values, i.e. the molar concentrations at which the test compound was able to inhibit 50% of the [^3 H]-ligand-binding
(§6) In the table "5HT2, 5HT1A, 5HT1B, 5HT1D, 5HT1C, 5HT3 " all refer to different types of serotonin receptor sites; "α2 " refers to the α2 -adrenergic receptor site; "H1 " refers to the histamine-H1 receptor site; and "D2 " refers to the dopamine-D2 -receptor site.

5HT1A serotonin receptor = target: T2, 5HT1A serotonin receptor (Homo sapiens, UniProt P08908); experiment: 5HT1A receptor binding, [3H]8OHDPAT displacement; conditions: read-out: IC50 (inhibition of [3H]-ligand binding) (converted)
T2 construct: expressed in transfected cells
T2 sequence (P08908 1-422): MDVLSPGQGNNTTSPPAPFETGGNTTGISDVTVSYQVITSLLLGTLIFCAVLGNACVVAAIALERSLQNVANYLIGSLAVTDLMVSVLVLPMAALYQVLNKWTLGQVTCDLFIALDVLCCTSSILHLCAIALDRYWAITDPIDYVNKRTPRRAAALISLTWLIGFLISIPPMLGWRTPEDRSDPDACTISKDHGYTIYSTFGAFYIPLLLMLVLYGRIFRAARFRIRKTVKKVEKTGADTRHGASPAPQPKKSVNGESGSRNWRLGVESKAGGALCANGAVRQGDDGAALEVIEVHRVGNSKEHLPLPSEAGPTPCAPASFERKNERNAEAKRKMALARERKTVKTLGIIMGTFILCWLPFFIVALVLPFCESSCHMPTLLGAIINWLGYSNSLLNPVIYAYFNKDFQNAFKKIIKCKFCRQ
Description: as §1, §2, §3, §4, §5, §6

5HT1B serotonin receptor = target: T3, 5HT1B serotonin receptor (Rattus norvegicus, UniProt P28564); experiment: 5HT1B receptor binding, [3H]serotonin displacement; conditions: read-out: IC50 (inhibition of [3H]-ligand binding) (converted)
T3 construct: Cell membrane fractions, prepared from tissue homogenates or cells; from tissue
T3 sequence (P28564 whole entry): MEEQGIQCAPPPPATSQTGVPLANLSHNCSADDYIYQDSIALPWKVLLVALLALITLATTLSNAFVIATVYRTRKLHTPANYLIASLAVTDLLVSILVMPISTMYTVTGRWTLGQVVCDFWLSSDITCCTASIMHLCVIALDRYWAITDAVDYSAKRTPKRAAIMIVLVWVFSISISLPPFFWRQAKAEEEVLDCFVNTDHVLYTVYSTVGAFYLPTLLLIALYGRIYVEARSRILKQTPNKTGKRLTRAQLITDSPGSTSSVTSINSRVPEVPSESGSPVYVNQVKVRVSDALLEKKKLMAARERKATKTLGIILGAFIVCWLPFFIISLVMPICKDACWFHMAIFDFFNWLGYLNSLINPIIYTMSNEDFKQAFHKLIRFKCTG
Description: as §1, §2, §3, §4, §5, §6

5HT3 serotonin receptor = target: T4, 5HT3 serotonin receptor (Mus musculus, UniProt P23979); experiment: 5HT3 receptor binding, [3H]GR65630 displacement; conditions: read-out: IC50 (inhibition of [3H]-ligand binding) (converted)
T4 construct: Cell membrane fractions, prepared from tissue homogenates or cells; endogenous in cells
T4 sequence (P23979 24-489): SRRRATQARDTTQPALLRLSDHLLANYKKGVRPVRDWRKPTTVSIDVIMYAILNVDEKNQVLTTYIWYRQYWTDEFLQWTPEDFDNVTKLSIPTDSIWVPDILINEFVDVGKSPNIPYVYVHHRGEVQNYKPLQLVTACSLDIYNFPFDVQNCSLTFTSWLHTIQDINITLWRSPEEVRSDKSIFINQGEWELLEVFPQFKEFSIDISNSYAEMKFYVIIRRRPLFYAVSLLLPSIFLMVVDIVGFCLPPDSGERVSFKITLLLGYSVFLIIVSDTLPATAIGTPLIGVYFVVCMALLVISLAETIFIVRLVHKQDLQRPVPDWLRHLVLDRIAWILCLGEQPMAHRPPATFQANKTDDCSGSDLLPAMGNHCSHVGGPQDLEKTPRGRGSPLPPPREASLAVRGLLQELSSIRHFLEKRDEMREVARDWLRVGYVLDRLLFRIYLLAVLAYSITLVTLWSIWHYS
Description: as §1, §2, §3, §4, §5, §6
(f) Hoyer & Neijt, Eur. J. Pharmacol., 143, 191, 1987;

histamine-H1 receptor = target: T5, histamine-H1 receptor (Cavia porcellus, UniProt P31389); experiment: histamine-H1 receptor binding, [3H]pyrilamine displacement; conditions: read-out: IC50 (inhibition of [3H]-ligand binding) (converted)
T5 construct: Cell membrane fractions, prepared from tissue homogenates or cells; from tissue
T5 sequence (P31389 whole entry): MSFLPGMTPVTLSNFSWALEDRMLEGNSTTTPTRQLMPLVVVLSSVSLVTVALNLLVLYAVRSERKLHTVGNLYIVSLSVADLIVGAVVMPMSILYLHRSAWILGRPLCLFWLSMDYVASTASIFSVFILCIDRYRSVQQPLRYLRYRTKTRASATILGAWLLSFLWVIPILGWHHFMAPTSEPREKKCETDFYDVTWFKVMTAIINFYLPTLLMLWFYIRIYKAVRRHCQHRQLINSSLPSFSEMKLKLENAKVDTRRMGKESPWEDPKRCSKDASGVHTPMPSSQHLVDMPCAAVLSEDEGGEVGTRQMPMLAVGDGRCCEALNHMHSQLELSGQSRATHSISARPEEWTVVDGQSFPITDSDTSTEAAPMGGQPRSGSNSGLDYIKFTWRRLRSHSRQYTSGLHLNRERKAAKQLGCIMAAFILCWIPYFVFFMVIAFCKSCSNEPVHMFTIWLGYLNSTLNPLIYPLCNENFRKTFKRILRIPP
Description: as §1, §2, §3, §4, §5, §6
(h) Chang et al., Eur. J. Pharmacol., 48, 463-464, 1978; Laduron et al.,

dopamine-D2 receptor = target: T6, dopamine-D2 receptor (Rattus norvegicus, UniProt P61169); experiment: dopamine-D2 receptor binding, [3H]haloperidol displacement; conditions: read-out: IC50 (inhibition of [3H]-ligand binding) (converted)
T6 construct: Cell membrane fractions, prepared from tissue homogenates or cells; from tissue
T6 sequence (P61169 whole entry): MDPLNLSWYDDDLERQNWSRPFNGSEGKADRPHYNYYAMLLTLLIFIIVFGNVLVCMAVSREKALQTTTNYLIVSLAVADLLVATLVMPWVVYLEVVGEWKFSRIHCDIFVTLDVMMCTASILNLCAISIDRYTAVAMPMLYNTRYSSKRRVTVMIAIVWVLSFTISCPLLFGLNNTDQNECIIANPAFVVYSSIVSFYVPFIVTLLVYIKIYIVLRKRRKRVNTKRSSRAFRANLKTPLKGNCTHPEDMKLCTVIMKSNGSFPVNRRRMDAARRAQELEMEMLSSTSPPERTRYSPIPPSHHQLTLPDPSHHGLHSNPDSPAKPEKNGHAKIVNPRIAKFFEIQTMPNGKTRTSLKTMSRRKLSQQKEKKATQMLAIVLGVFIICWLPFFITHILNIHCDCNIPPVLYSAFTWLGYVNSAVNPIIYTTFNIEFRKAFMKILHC
Description: as §1, §2, §3, §4, §5, §6

[1] = test system: serotonin-induced contraction of caudal artery of the rat; experiment: Antagonistic activity on the effect of serotonin on the caudal artery of the rat; type: cell-based; conditions: 5 min; rat caudal artery strips; serotonin 40 ng/ml; 5 minutes after adding the drug; read-out: ED50 (minimal concentration which reduces the amplitude of the contractions by at least 50% of its normal value)
Description: Antagonistic activity on the effect of serotonin on the caudal artery of the rat.
Caudal arteries from the fasted male rats (210-235 g) were used in the test. Two helical strips having a length of 5-6 cm and a width of 2 mm were obtained from each artery and mounted vertically in a 100 ml organ bath containing an oxygenated Krebs-Henseleit solution. Submaximal contractions of the arterial strips were produced by adding single doses of serotonin (40 ng/ml) to the organ bath for 2 minutes with each time an interval of 10 minutes. The amplitude of the contractions was measured before and 5 minutes after adding the drug. After washing out, the agonist was added again three times in order to see whether the contraction was restored and normalized. […] The ED50 -values are the minimal concentrations of the concerned drugs which reduce the amplitude of the contractions by at least 50% of its normal value.

T1 sequence (P14842 whole entry): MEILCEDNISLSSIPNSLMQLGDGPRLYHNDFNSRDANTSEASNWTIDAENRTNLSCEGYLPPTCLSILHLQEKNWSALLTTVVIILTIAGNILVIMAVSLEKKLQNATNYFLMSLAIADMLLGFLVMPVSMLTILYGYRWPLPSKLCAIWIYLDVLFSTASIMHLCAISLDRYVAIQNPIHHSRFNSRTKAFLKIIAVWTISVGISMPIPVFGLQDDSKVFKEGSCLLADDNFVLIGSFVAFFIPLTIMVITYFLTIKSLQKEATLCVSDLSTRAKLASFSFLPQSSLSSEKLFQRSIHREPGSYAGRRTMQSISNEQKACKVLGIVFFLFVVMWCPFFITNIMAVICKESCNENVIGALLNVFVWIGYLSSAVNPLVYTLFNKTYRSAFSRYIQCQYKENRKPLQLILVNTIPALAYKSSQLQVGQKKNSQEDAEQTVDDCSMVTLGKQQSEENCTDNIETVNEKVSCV

Row | SMILES | IC50 (5HT2 serotonin receptor) [nM] | IC50 (5HT1A serotonin receptor) [nM] | IC50 (5HT1B serotonin receptor) [nM] | IC50 (5HT3 serotonin receptor) [nM] | IC50 (histamine-H1 receptor) [nM] | IC50 (dopamine-D2 receptor) [nM] | IC50 [1] [nM]
1 | COc1cc(N)c(I)cc1C(=O)NC1(C)CCN(CCCOc2ccc(F)cc2)CC1 [Compound 1, 4-amino-N-[1-[3-(4-fluorophenoxy)propyl]-4-methyl-4-piperidinyl]-5-iodo-2-methoxybenzamide] | 0.603 | 457 | 8910 | 4170 | 6460 | 27.5 | 0.27
2 | COc1cc(N)c(Cl)cc1C(=O)NC1(C)CCN(CCCOc2ccc(F)cc2)CC1 [Compound 2, 4-amino-5-chloro-N-[1-[3-(4-fluorophenoxy)propyl]-4-methyl-4-piperidinyl]-2-methoxybenzamide] | 0.251 | 661 | 6610 | 1700 | 4570 | 29.5 | 0.15
3 | COc1cc(N)c(Br)cc1C(=O)NC1(C)CCN(CCCOc2ccc(F)cc2)CC1 [Compound 3, 4-amino-5-bromo-N-[1-[3-(4-fluorophenoxy)propyl]-4-methyl-4-piperidinyl]-2-methoxybenzamide] | 0.661 | 407 | 6610 | 1440 | 10000 | 47.9 | –
4 | COc1cc(N)c(Cl)cc1C(=O)NC1(C)CCN(CCCOc2ccc(F)cc2Br)CC1 [Compound 4, 4-amino-N-[1-[3-(2-bromo-4-fluorophenoxy)propyl]-4-methyl-4-piperidinyl]-5-chloro-2-methoxybenzamide] | 0.631 | 417 | 10000 | 191 | 2880 | 22.9 | 0.12
5 | COc1cc(N)ccc1C(=O)NC1(C)CCN(CCCOc2ccc(F)cc2)CC1 [Compound 5, 4-amino-N-[1-[3-(4-fluorophenoxy)propyl]-4-methyl-4-piperidinyl]-2-methoxybenzamide] | 0.178 | 2240 | > 10000 | > 10000 | 3720 | 85.1 | 0.213
6 | COc1cc(N=[N+]=[N-])c(I)cc1C(=O)NC1(C)CCN(CCCOc2ccc(F)cc2)CC1 [Compound 7, 4-azido-N-[1-[3-(4-fluorophenoxy)propyl]-4-methyl-4-piperidinyl]-5-iodo-2-methoxybenzamude hemihydrate] | 7.41 | 89.1 | 3240 | 10000 | 7940 | 66.1 | –
7 | COc1cc(N=[N+]=[N-])c(Br)cc1C(=O)NC1(C)CCN(CCCOc2ccc(F)cc2)CC1 [Compound 8, 4-azido-5-bromo-N-[1-[3-(4-fluorophenoxy)propyl]-4-methyl-4-piperidinyl]-2-methoxybenzamide] | 3.55 | 219 | 3310 | 8320 | 8510 | 63.1 | –

— patent publication US5498618A, “4-amino-N-(4-methyl-4-piperidinyl)-2-methoxybenzamides for treating smooth muscle contraction disorders” (Janssen Pharmaceutica N.V., priority 1993, dated 1996)
